Experimental data published in ChEMBL document CHEMBL1141451, “Crotonkinins A and B and related diterpenoids from Croton tonkinensis as anti-inflammatory and antitumor agents” (J Nat Prod, 2007).
Converted amounts (≈) assume the structure as drawn.

Assays:
[1] = Inhibition of nitric oxide synthase in mouse BV2 cells assessed as inhibition of LPS-induced NO production; format: cell-based; conditions: BV-2
MCF7 [2] = assay: Cytotoxicity against human MCF7 cells; format: functional, cell-based
[3] = Cytotoxicity against human KB-VIN cells; format: functional, cell-based; conditions: KBVIN
KB [4] = assay: Cytotoxicity against human KB cells; format: functional, cell-based
A549 [5] = assay: Cytotoxicity against human A549 cells; format: functional, cell-based
BV-2 = assay: Inhibition of NADPH oxidase in mouse BV2 cells assessed as NOX-dependent ROS production at 50 uM; format: cell-based
[6] = Inhibition of NADPH oxidase in mouse BV2 cells assessed as NOX-dependent ROS production; conditions: BV-2
[7] = Cytotoxicity against human KB-VIN cells at 20 ug/ml; format: functional; conditions: KBVIN
KB [8] = assay: Cytotoxicity against human KB cells at 20 ug/ml; format: functional
A549 [9] = assay: Cytotoxicity against human A549 cells at 20 ug/ml; format: functional
MCF7 [10] = assay: Cytotoxicity against human MCF7 cells at 20 ug/ml; format: functional

Structure (SMILES) | IC50 [1] | EC50 (MCF7 [2]) | EC50 [3] | EC50 (KB [4]) | EC50 (A549 [5]) | inhibition (BV-2) | IC50 [6] | inhibition at 20 µg/mL [7] | inhibition at 20 µg/mL (KB [8]) | inhibition at 20 µg/mL (A549 [9]) | inhibition at 20 µg/mL (MCF7 [10])
COC(=O)[C@@H](N)CCCNC(=N)N[N+](=O)[O-] [L-NAME] | 20.1 µM |  |  |  |  |  |  |  |  |  | 
C=C1C(=O)[C@]23C[C@H]1CC[C@H]2[C@]1(C)CCCC(C)(C)[C@H]1C[C@H]3O | 4 µM | 1.47 µg/mL (≈ 4.86 µM) | 0.74 µg/mL (≈ 2.45 µM) | 0.79 µg/mL (≈ 2.61 µM) | 4.77 µg/mL (≈ 15.8 µM) | 23.1% |  |  |  |  | 
C=C1C(=O)[C@]23C[C@H]1CC[C@H]2[C@]1(C)CCC[C@](C)(CO)[C@H]1C[C@H]3O | 1.4 µM | 0.98 µg/mL (≈ 3.08 µM) | 0.82 µg/mL (≈ 2.57 µM) | 0.87 µg/mL (≈ 2.73 µM) | 3.96 µg/mL (≈ 12.4 µM) | 20.6% |  |  |  |  | 
c1ccc2c(c1)[I+]c1ccccc1-2 [DIPHENYLENEIODONIUM] |  |  |  |  |  | 94.3% | 16 µM |  |  |  | 
CC(=O)OC[C@@]1(C)CCC[C@]2(C)[C@@H]1C[C@H](O)[C@@]13C[C@@H](CC[C@@H]21)[C@H](C)C3=O | 42.5 µM |  |  |  |  | 9.5% |  | < 50% | < 50% | < 50% | < 50%
C=C1C(=O)[C@@]23CC[C@@H]4[C@@](C)(COC(C)=O)CCC[C@@]4(C)[C@@H]2CC[C@@H]1C3 |  | 6.11 µg/mL (≈ 17.7 µM) | 2.84 µg/mL (≈ 8.24 µM) | 3.75 µg/mL (≈ 10.9 µM) | 6.56 µg/mL (≈ 19 µM) |  |  |  |  |  | 
C=C1C(=O)[C@@]23CC[C@@H]4[C@@](C)(CO)CCC[C@@]4(C)[C@@H]2CC[C@@H]1C3 |  | 4.31 µg/mL (≈ 14.2 µM) | 1.31 µg/mL (≈ 4.33 µM) | 1.47 µg/mL (≈ 4.86 µM) | 6.52 µg/mL (≈ 21.6 µM) |  |  |  |  |  | 
C=C1C(=O)[C@@]23[C@H](O)C[C@@H]4C(C)(C)CCC[C@@]4(C)[C@@H]2CC[C@@H]1[C@H]3O | 1.2 µM | 0.75 µg/mL (≈ 2.36 µM) | 0.63 µg/mL (≈ 1.98 µM) | 0.64 µg/mL (≈ 2.01 µM) | 1.45 µg/mL (≈ 4.55 µM) | 29.4% |  |  |  |  | 
C=C1C(=O)[C@@]23[C@H](O)C[C@@H]4[C@@](C)(COC(C)=O)CCC[C@@]4(C)[C@@H]2CC[C@@H]1[C@H]3O |  | 1.98 µg/mL (≈ 5.26 µM) | 0.88 µg/mL (≈ 2.34 µM) | 0.93 µg/mL (≈ 2.47 µM) | 2.78 µg/mL (≈ 7.38 µM) |  |  |  |  |  | 
C=C1C(=O)[C@@]23CC[C@H]4[C@@](C)(CCC[C@]4(C)C(=O)O)[C@@H]2CC[C@@H]1C3 | 2.6 µM | 2.69 µg/mL (≈ 8.5 µM) | 1.08 µg/mL (≈ 3.41 µM) | 1.04 µg/mL (≈ 3.29 µM) | 3.91 µg/mL (≈ 12.4 µM) | 14.2% |  |  |  |  | 
C=C1C(=O)[C@@]23[C@H](O)C[C@@H]4C(C)(C)CC[C@@H](OC(C)=O)[C@@]4(C)[C@@H]2CC[C@@H]1[C@H]3O | 1.3 µM | 0.94 µg/mL (≈ 2.5 µM) | 0.78 µg/mL (≈ 2.07 µM) | 0.91 µg/mL (≈ 2.42 µM) | 3.03 µg/mL (≈ 8.05 µM) | 29.4% |  |  |  |  | 
C=C1C(=O)[C@]23C[C@H]1CC[C@H]2[C@]1(C)CCC[C@](C)(COC(C)=O)[C@H]1C[C@H]3O | 1.3 µM | 0.65 µg/mL (≈ 1.8 µM) | 0.61 µg/mL (≈ 1.69 µM) | 0.71 µg/mL (≈ 1.97 µM) | 1.26 µg/mL (≈ 3.5 µM) | 24.8% |  |  |  |  | 
C=C1C[C@]23C(=O)C[C@H]4C(C)(C)CCC[C@]4(C)[C@H]2CC[C@H]1[C@@H]3O [CROTONKININ A] | 46.2 µM |  |  |  |  | 11.2% |  | < 50% | < 50% | < 50% | < 50%
